Experimental data as given in patent US7888061B2, “Method of stabilising or reactivating a creatinine sensor with a divalent manganese ion” (Radiometer Medical ApS, priority 2005, dated 2011).
Where two headings read alike, the source gives them in different places.

How the values were obtained:
urease = urease (Canavalia ensiformis, UniProt P07374)
[1] = target: T1, Creatinine Amidohydrolase (Creatininase) (Pseudomonas putida, UniProt P83772); details: cited from earlier work; for reactivation of the inactive apoenzyme: addition of 0.5 mM, zinc ions removed from creatininase
T1 sequence (P83772 1-260): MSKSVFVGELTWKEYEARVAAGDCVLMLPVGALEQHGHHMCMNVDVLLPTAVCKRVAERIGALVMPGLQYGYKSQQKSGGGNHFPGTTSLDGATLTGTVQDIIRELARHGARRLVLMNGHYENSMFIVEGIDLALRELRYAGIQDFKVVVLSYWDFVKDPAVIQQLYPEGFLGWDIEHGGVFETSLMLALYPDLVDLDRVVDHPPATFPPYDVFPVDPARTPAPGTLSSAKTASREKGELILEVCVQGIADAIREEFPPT

glucose oxidase = glucose oxidase (Aspergillus niger, UniProt P13006)
lactate oxidase = lactate oxidase (Aerococcus viridans, UniProt Q44467)
[2] = target: heat-treated creatininase (Pseudomonas putida, UniProt P83772); details: enzyme assays
creatininase = creatininase (Pseudomonas putida, UniProt P83772)
Protocol: The following examples are intended to illustrate the invention without limiting the invention. In all of the examples, creatininase from Pseudomonas putida was used, obtained from Roche Diagnostics, Mannheim, Germany.
The stability of the creatinine sensor was tested by observing the sensor responses to calibration solutions containing each of the substrates creatinine and creatine.
The calibration solutions were prepared by dissolving about 200 μM creatinine in the Radiometer Calibration Solution 1 S1720 and about 200 μM creatine in the Radiometer Calibration Solution 2 S1730. These solutions were repeatedly introduced into the apparatus one after the other and sensor responses were obtained.
It is convenient to depict the relation between the creatinine sensor response to creatinine relative to the creatinine sensor response to creatine by the following ratio: R=response to creatinine/response to creatine.
If R is constant, the creatininase activity is stable. A declining value for R indicates an overall loss of creatininase activity.
The same experiment as described above was conducted with five creatinine sensors having a significant initial excess of creatininase. In FIG. 4, R is depicted for this experiment.

[3] = system: Creatinine Amidohydrolase; details: 1.0 mM solution; cited from earlier work

Sequence of glucose oxidase (P13006 17-605, species assumed): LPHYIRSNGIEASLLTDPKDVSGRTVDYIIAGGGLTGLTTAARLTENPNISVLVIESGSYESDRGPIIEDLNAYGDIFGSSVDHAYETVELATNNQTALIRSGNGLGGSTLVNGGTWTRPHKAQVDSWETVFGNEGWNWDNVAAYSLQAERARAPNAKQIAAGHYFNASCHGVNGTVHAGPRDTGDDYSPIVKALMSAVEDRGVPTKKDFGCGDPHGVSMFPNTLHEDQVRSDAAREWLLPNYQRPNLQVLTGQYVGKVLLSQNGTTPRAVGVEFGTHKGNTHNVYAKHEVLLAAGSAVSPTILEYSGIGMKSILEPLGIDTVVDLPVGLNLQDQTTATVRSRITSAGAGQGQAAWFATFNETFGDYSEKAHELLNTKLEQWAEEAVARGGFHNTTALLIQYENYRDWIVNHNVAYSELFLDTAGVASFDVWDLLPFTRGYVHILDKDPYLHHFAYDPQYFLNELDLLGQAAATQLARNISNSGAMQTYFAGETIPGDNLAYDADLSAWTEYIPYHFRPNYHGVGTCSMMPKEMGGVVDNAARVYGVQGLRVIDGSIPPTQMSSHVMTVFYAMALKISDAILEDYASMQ
Sequence of urease (P07374 whole entry, looked up): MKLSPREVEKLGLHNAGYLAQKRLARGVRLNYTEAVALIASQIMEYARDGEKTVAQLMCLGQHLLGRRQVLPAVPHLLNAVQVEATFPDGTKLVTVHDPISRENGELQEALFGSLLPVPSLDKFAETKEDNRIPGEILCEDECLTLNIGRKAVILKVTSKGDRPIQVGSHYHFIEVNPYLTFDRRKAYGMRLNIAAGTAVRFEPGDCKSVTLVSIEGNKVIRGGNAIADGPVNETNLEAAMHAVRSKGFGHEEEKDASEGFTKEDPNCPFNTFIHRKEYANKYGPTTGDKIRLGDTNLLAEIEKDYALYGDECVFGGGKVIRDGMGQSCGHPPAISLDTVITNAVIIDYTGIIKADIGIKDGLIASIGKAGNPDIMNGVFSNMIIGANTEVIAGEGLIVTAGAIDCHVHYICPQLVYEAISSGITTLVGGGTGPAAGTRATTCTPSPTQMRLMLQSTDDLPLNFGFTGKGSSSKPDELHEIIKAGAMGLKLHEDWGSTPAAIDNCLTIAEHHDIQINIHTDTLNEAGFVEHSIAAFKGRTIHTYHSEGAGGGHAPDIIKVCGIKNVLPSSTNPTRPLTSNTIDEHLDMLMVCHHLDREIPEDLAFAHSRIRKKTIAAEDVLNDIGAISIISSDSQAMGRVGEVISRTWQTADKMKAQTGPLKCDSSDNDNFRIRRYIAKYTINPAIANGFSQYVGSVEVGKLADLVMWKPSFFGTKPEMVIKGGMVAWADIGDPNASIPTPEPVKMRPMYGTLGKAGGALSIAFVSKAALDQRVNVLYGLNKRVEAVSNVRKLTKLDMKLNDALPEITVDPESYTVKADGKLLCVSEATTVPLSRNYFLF
Sequence of lactate oxidase (Q44467 whole entry, species assumed): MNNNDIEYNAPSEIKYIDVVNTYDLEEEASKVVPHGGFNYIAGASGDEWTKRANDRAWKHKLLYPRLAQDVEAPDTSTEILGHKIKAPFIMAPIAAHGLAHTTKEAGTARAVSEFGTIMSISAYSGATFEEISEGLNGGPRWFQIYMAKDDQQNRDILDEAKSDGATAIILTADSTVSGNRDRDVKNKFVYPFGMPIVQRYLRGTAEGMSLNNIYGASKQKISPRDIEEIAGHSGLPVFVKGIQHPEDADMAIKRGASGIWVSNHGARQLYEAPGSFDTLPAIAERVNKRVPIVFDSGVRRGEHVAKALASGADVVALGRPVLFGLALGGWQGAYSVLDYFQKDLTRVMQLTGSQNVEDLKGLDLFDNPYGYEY

SMILES	reactivation of the inactive apoenzyme [1]	inhibition of the activity of creatininase ([1]; purified, heat-treated enzyme)	also measured
[Mn+2] [divalent manganese ion]	reactivated	inhibit slightly	deactivation of urease (urease): not to deactivate; deactivation of glucose oxidase (glucose oxidase): not to deactivate; deactivation of lactate oxidase (lactate oxidase): not to deactivate; effect on heat-treated creatininase [2]: favourable effect; R = response to creatinine/response to creatine (relative sensor response) (creatininase; 2 μM in Rinse Solution for 5½ days after 2¾ days without, two sensors with nearly no initial excess of creatininase, FIG. 3): approximately 0.8; R = response to creatinine/response to creatine (relative sensor response) (creatininase; 10 μM in Rinse Solutions after 18 days without (R had decreased to 0.9), five sensors with significant initial excess of creatininase, FIG. 4): approximately 1.3; activation of creatininase (creatininase; concentrations of about 0.01 to about 150 μM, without adverse effect on the other enzymes of the dual sensor system): activate creatininase; time for which the sensor response level was maintained (creatininase; continuous treatment at about 2 μM, FIG. 3): at least 5 days; time for which the sensor response level was maintained (creatininase; continuous treatment at about 10 μM, FIG. 4): at least 5 days
[Cl][Mn][Cl] [MnCl2]			reactivation of metal ion depleted creatininase [3]: reactivated
[Zn+2] [Zn]	reactivated	inhibit slightly	
[Ca+2] [Ca]		inhibit slightly	
[Fe+2] [Fe]	reactivated	inhibit slightly	
[Co+2] [Co]	reactivated	inhibit slightly	
[Mg+2] [Mg]	reactivated	inhibit slightly	
[Ni+2] [Ni]	reactivated	inhibit slightly	
O=C(O)CN(CCN(CC(=O)O)CC(=O)O)CC(=O)O [EDTA, ethylenediamine tetraacetic acid]			inhibition of the activity of creatininase [1]: only slight inhibition
